Experimental data published in the NIST ThermoML archive (doi:10.1021/je034102r).
Numbers after ± are expanded uncertainties.

Assay: molar heat capacity at constant pressure
Details: 101.33 kPa, Liquid, heat bridge-scanning calorimeter

CCCCn1cc[n+](C)c1.F[P-](F)(F)(F)(F)F [1-butyl-3-methylimidazolium hexafluorophosphate]
Details | molar heat capacity at constant pressure [J/K/mol]
326.94 K | 426.56 ± 8.5
327.06 K | 426.56 ± 8.5
327.19 K | 426.56 ± 8.5
327.31 K | 426.56 ± 8.5
327.44 K | 426.84 ± 8.5
327.72 K | 427.13 ± 8.5
327.85 K | 427.13 ± 8.5
327.98 K | 427.13 ± 8.5
328.1 K | 427.13 ± 8.5
328.23 K | 427.41 ± 8.5
328.35 K | 427.41 ± 8.5
328.48 K | 427.41 ± 8.5
328.61 K | 427.41 ± 8.5
328.73 K | 427.41 ± 8.5
328.99 K | 427.69 ± 8.5
329.11 K | 427.69 ± 8.5
329.24 K | 427.98 ± 8.5
329.37 K | 427.69 ± 8.5
329.49 K | 427.98 ± 8.5
329.62 K | 427.98 ± 8.5
329.74 K | 428.26 ± 8.5
329.87 K | 428.26 ± 8.5
330 K | 428.26 ± 8.5
330.12 K | 427.98 ± 8.5
330.25 K | 428.26 ± 8.5
330.52 K | 428.55 ± 8.5
330.65 K | 428.55 ± 8.5
330.77 K | 428.55 ± 8.5
330.9 K | 428.55 ± 8.5
331.03 K | 428.55 ± 8.5
331.15 K | 428.55 ± 8.5
331.28 K | 428.83 ± 8.5
331.4 K | 429.12 ± 8.5
331.53 K | 429.12 ± 8.5
331.79 K | 429.12 ± 8.5
331.91 K | 429.12 ± 8.5
332.04 K | 429.12 ± 8.5
332.16 K | 429.12 ± 8.5
332.29 K | 429.12 ± 8.5
332.42 K | 429.4 ± 8.5
332.54 K | 429.4 ± 8.5
332.67 K | 429.4 ± 8.5
332.79 K | 429.4 ± 8.5
332.92 K | 429.4 ± 8.5
333.05 K | 429.4 ± 8.5
333.32 K | 429.68 ± 8.5
333.45 K | 429.68 ± 8.5
333.58 K | 429.97 ± 8.5
333.71 K | 429.97 ± 8.5
333.83 K | 429.97 ± 8.5
333.96 K | 429.97 ± 8.5
334.08 K | 429.97 ± 8.5
334.21 K | 429.97 ± 8.5
334.34 K | 429.97 ± 8.5
334.59 K | 430.25 ± 8.5
334.72 K | 430.25 ± 8.5
334.84 K | 430.25 ± 8.5
334.97 K | 430.25 ± 8.5
335.1 K | 430.54 ± 8.5
335.22 K | 430.54 ± 8.5
335.35 K | 430.54 ± 8.5
335.47 K | 430.54 ± 8.5
335.6 K | 430.82 ± 8.5
335.73 K | 430.82 ± 8.5
335.85 K | 430.82 ± 8.5
336.12 K | 431.1 ± 8.5
336.25 K | 430.82 ± 8.5
336.38 K | 430.82 ± 8.5
336.5 K | 431.1 ± 8.5
336.63 K | 431.1 ± 8.5
336.75 K | 431.1 ± 8.5
336.88 K | 431.39 ± 8.5
337.01 K | 431.39 ± 8.5
337.13 K | 431.39 ± 8.5
337.39 K | 431.39 ± 8.5
337.51 K | 431.39 ± 8.5
337.64 K | 431.39 ± 8.5
337.76 K | 431.39 ± 8.5
337.89 K | 431.67 ± 8.5
338.02 K | 431.67 ± 8.5
338.14 K | 431.96 ± 8.5
338.27 K | 431.96 ± 8.5
338.39 K | 431.96 ± 8.5
338.52 K | 432.24 ± 8.5
338.64 K | 432.24 ± 8.5
338.91 K | 432.24 ± 8.5
339.04 K | 432.53 ± 8.5
339.17 K | 432.53 ± 8.5
339.29 K | 432.53 ± 8.5
339.43 K | 432.81 ± 8.5
339.55 K | 432.81 ± 8.5
339.68 K | 432.81 ± 8.5
339.8 K | 432.81 ± 8.5
339.93 K | 433.09 ± 8.5
340.19 K | 433.09 ± 8.5
